Measurements taken from patent publication US12398120B2, “Substituted hydantoinamides as ADAMTS7 antagonists” (BAYER AKTIENGESELLSCHAFT, priority 2019, dated 2025).

What follows are compounds tested against ADAMTS4 (Homo sapiens (Human), UniProt O75173) (assay: Selectivity assay for ADAMTS-7 modulators: ADAMTS4 (FRET substrate)). Conditions: ADAMTS4 (R&D 4307-AD) 50 nM, substrate Dabcyl-EEVKAKVQPY-Glu(Edans)-NH2 1 μM, 120 min, 32° C.
Format: biochemical
In short: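 Human ADAMTS4 with compound in DMSO, or DMSO control; reaction started by adding FRET substrate in reaction buffer. Fluorescence increase measured at substrate-specific wavelengths. IC50 derived from % inhibition of enzyme activity versus compound concentration.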

Sequence of ADAMTS4 (O75173 213-685): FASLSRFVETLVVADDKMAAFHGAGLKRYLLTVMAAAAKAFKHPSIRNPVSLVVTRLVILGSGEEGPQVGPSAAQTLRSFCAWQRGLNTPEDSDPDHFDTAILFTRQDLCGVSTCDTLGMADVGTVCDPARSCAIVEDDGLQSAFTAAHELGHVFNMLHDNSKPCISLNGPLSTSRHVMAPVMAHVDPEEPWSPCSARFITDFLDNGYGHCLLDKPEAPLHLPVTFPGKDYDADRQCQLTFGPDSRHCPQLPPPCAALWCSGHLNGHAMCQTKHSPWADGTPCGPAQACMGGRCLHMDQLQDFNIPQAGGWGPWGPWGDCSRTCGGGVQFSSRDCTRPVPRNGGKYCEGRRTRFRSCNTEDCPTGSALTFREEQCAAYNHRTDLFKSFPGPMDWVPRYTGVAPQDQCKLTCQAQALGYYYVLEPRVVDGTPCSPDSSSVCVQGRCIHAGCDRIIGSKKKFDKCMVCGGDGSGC

SMILES | IC50 [µM]
Cc1ccc(-c2cnccc2C(=O)NC[C@@]2(C3CC3)NC(=O)NC2=O)cc1 [Example 19, N-{[(4R)-4-Cyclopropyl-2,5-Dioxoimidazolidin-4-Yl]Methyl}-3-(4-Methylphenyl)Isonicotinamide] | > 50
O=C1NC(=O)[C@](CNC(=O)c2cc(F)ccc2-c2ccc(C(F)(F)F)cc2)(C2CC2)N1 [Example 121, N-{[(4R)-4-Cyclopropyl-2,5-Dioxoimidazolidin-4-Yl]Methyl}-4-Fluoro-4′-(Trifluoromethyl)[Biphenyl]-2-Carboxamide] | 5.9
Cn1ccnc1C1(CNC(=O)c2ccccc2-c2ccc(C(F)(F)F)cc2)NC(=O)NC1=O (stereo not drawn) [Example 148, Ent-N-{[4-(1-Methyl-1H-Imidazol-2-Yl)-2,5-Dioxoimidazolidin-4-Yl]Methyl}-4′-(Trifluoromethyl)[Biphenyl]-2-Carboxamide] | 1.84
O=C1NC(=O)[C@](CNC(=O)c2ccccc2-c2ccc(OC(F)(F)F)cc2)(C2CC2)N1 [Example 21, N-{[(4R)-4-Cyclopropyl-2,5-Dioxoimidazolidin-4-Yl]Methyl}-4′-(Trifluoromethoxy)[Biphenyl]-2-Carboxamide] | > 50
Cc1cnoc1C1(CNC(=O)c2ccccc2-c2ccc(C(F)(F)F)cc2)NC(=O)NC1=O (racemic) [Example 59, Rac-N-{[4-(4-Methyl-1,2-Oxazol-5-Yl)-2,5-Dioxoimidazolidin-4-Yl]Methyl}-4′-(Trifluoromethyl)[Biphenyl]-2-Carboxamide] | 23
CC(C)(C#N)c1ccc(-c2ccccc2C(=O)NC[C@@]2(C3CC3)NC(=O)NC2=O)cc1 [Example 123, 4′-(2-Cyanopropan-2-Yl)-N-{[(4R)-4-Cyclopropyl-2,5-Dioxoimidazolidin-4-Yl]Methyl}[Biphenyl]-2-Carboxamide] | 19
CC(C)(C)C1(CNC(=O)c2ccccc2-c2ccc(C(F)(F)F)cc2)NC(=O)NC1=O (stereo not drawn) [Example 71, Ent-N-[(4-Tert-Butyl-2,5-Dioxoimidazolidin-4-Yl)Methyl]-4′-(Trifluoromethyl)[Biphenyl]-2-Carboxamide] | 16.3
O=C1NC(=O)C(CNC(=O)c2ccc(F)cc2-c2ccc(Cl)cc2)(C2(F)CC2)N1 (racemic) [Example 249, Rac-4′-Chloro-5-Fluoro-N-{[4-(1-Fluorocyclopropyl)-2,5-Dioxoimidazolidin-4-Yl]Methyl}[Biphenyl]-2-Carboxamide] | 35
Cc1nocc1C1(CNC(=O)c2ccccc2-c2ccc(C(F)(F)F)nc2)NC(=O)NC1=O (stereo not drawn) [Example 65, Ent-N-{[4-(3-Methyl-1,2-Oxazol-4-Yl)-2,5-Dioxoimidazolidin-4-Yl]Methyl}-2-[6-(Trifluoromethyl)Pyridin-3-Yl]Benzamide] | 20
Cc1nc(C)c(C2(CNC(=O)c3ccccc3-c3ccc(C(F)(F)F)cc3)NC(=O)NC2=O)s1 (stereo not drawn) [Example 47, Ent-N-{[4-(2,4-Dimethyl-1,3-Thiazol-5-Yl)-2,5-Dioxoimidazolidin-4-Yl]Methyl}-4′-(Trifluoromethyl)[Biphenyl]-2-Carboxamide] | 4.15
CCC(F)(F)c1ccc(-c2ccccc2C(=O)NC[C@@]2(C3CC3)NC(=O)NC2=O)cc1 [Example 102, N-{[(4R)-4-Cyclopropyl-2,5-Dioxoimidazolidin-4-Yl]Methyl}-4′-(1,1-Difluoropropyl)[Biphenyl]-2-Carboxamide] | 6.6
CC(C)(c1ccc(-c2ccccc2C(=O)NC[C@@]2(C3CC3)NC(=O)NC2=O)cc1)C(F)(F)F [Example 120, N-{[(4R)-4-Cyclopropyl-2,5-Dioxoimidazolidin-4-Yl]Methyl}-4′-(1,1,1-Trifluoro-2-Methylpropan-2-Yl)[Biphenyl]-2-Carboxamide] | 35
Cc1c(C2(CNC(=O)c3ccccc3-c3ccc(C(F)(F)F)cc3)NC(=O)NC2=O)cnn1C (stereo not drawn) [Example 31, Ent-N-{[4-(1,5-Dimethyl-1H-Pyrazol-4-Yl)-2,5-Dioxoimidazolidin-4-Yl]Methyl}-4′-(Trifluoromethyl)[Biphenyl]-2-Carboxamide] | 6.5
COc1ccc(C(=O)NC[C@@]2(C3CC3)NC(=O)NC2=O)c(-c2ccc(C(F)(F)F)cc2)c1 [Example 107, N-{[(4R)-4-Cyclopropyl-2,5-Dioxoimidazolidin-4-Yl]Methyl}-5-Methoxy-4′-(Trifluoromethyl)[Biphenyl]-2-Carboxamide] | 6.2
O=C1NC(=O)[C@](CNC(=O)c2ccc(F)c(F)c2-c2ccc(C(F)(F)F)nc2)(C2CC2)N1 [Example 76, N-{[(4R)-4-Cyclopropyl-2,5-Dioxoimidazolidin-4-Yl]Methyl}-3,4-Difluoro-2-[6-(Trifluoromethyl)Pyridin-3-Yl]Benzamide] | 14

Next, values leading:

IC50 [µM] | SMILES
> 50 | O=C1NC(=O)C(CNC(=O)c2ccc(F)c(F)c2-c2ccc(C(F)(F)F)cc2)(C23CC(F)(C2)C3)N1 (racemic) [Example 295, Rac-5,6-Difluoro-N-{[4-(3-Fluorobicyclo[1.1.1]Pentan-1-Yl)-2,5-Dioxoimidazolidin-4-Yl]Methyl}-4′-(Trifluoromethyl)[Biphenyl]-2-Carboxamide]
3.8 | O=C1NC(=O)C(CNC(=O)c2ccccc2-c2ccc(C(F)(F)F)nc2)(c2ncsc2C2CC2)N1 (stereo not drawn) [Example 274, Ent-N-{[4-(5-Cyclopropyl-1,3-Thiazol-4-Yl)-2,5-Dioxoimidazolidin-4-Yl]Methyl}-2-[6-(Trifluoromethyl)Pyridin-3-Yl]Benzamide]
14 | Cn1nccc1C1(CNC(=O)c2ccc(F)cc2-c2ccc(C(F)(F)F)nc2)NC(=O)NC1=O (single isomer, unassigned; ent-4) [Example 291, Ent-4-Fluoro-N-{[4-(1-Methyl-1H-Pyrazol-5-Yl)-2,5-Dioxoimidazolidin-4-Yl]Methyl}-2-[6-(Trifluoromethyl)Pyridin-3-Yl]Benzamide]
6.9 | O=C1NC(=O)C(CNC(=O)c2ccccc2-c2ccc(C(F)(F)F)cc2)(c2ncsc2C2CC2)N1 (racemic) [Example 270, Rac-N-{[4-(5-Cyclopropyl-1,3-Thiazol-4-Yl)-2,5-Dioxoimidazolidin-4-Yl]Methyl}-4′-(Trifluoromethyl)[Biphenyl]-2-Carboxamide]
12 | O=C1NC(=O)C(CNC(=O)c2ccccc2-c2ccc(Cl)cc2)(c2ccnn2C(F)F)N1 (racemic) [Example 258, Rac-4′-Chloro-N-({4-[1-(Difluoromethyl)-1H-Pyrazol-5-Yl]-2,5-Dioxoimidazolidin-4-Yl}Methyl)[Biphenyl]-2-Carboxamide]
9.37 | Cn1nccc1C1(CNC(=O)c2ccc(F)cc2-c2ccc(C(F)(F)F)cc2)NC(=O)NC1=O (single isomer, unassigned; ent-5) [Example 184, Ent-5-Fluoro-N-{[4-(1-Methyl-1H-Pyrazol-5-Yl)-2,5-Dioxoimidazolidin-4-Yl]Methyl}-4′-(Trifluoromethyl)[Biphenyl]-2-Carboxamide]
> 50 | O=C1NC(=O)C(CNC(=O)c2ccc(F)cc2-c2ccc(Cl)cc2)(C2CC(F)(F)C2)N1 (racemic) [Example 245, Rac-4′-Chloro-N-{[4-(3,3-Difluorocyclobutyl)-2,5-Dioxoimidazoidin-4-Yl]Methyl}-5-Fluoro[Biphenyl]-2-Carboxamide]
7.8 | O=C1NC(=O)[C@](CNC(=O)c2ccccc2-c2ccc(Cl)cc2)(C2CC2)N1 [Example 220, 4′-Chloro-N-{[(4R)-4-Cyclopropyl-2,5-Dioxoimidazolidin-4-Yl]Methyl}[1,1′-Biphenyl]-2-Carboxamide]
